Tests used:
[1] = system: phosphorylation of Serine 473 in Akt, HCT 116 human colon carcinoma cells; test: Cell-based phospho-AKT Ser473 assay (MSD sandwich immunoassay, IGF-1 stimulated); settings: Homo sapiens, HCT-116, HCT 116 cells; read-out: HCT 116 pAKT IC50
Outline: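 HCT116 cells, 16,000/well and plated overnight, were pre-treated with serially diluted compound for 2 h at 37 °C, then stimulated with IGF-1 at 100 ng/ml for 15 min. Lysates were assayed for Akt pSer473 by MSD sandwich electrochemiluminescence, and IC50 was derived from dose-response data.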

PI3K α = molecular target: T1, PI3K α (Homo sapiens, UniProt P42336); test: In vitro PI3 kinase enzyme assay (alpha), ATP loss, bioluminescence; type: biochemical; settings: read-out: PI3Kα ATP loss IC50;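 further: purified p110α/p85 heterodimer acting on PtdIns(4,5)P2 at room temperature, remaining ATP read by luminescence, inhibition scaled between compound-free wells with and without enzyme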
T1 construct: Full length p110 subunits of PI3K α, β and δ, N-terminally labeled with polyHis tag; polyHis (N); made in house; host or cells: Sf9 insect cells (baculovirus)
T1 sequence (P42336 whole entry, species assumed): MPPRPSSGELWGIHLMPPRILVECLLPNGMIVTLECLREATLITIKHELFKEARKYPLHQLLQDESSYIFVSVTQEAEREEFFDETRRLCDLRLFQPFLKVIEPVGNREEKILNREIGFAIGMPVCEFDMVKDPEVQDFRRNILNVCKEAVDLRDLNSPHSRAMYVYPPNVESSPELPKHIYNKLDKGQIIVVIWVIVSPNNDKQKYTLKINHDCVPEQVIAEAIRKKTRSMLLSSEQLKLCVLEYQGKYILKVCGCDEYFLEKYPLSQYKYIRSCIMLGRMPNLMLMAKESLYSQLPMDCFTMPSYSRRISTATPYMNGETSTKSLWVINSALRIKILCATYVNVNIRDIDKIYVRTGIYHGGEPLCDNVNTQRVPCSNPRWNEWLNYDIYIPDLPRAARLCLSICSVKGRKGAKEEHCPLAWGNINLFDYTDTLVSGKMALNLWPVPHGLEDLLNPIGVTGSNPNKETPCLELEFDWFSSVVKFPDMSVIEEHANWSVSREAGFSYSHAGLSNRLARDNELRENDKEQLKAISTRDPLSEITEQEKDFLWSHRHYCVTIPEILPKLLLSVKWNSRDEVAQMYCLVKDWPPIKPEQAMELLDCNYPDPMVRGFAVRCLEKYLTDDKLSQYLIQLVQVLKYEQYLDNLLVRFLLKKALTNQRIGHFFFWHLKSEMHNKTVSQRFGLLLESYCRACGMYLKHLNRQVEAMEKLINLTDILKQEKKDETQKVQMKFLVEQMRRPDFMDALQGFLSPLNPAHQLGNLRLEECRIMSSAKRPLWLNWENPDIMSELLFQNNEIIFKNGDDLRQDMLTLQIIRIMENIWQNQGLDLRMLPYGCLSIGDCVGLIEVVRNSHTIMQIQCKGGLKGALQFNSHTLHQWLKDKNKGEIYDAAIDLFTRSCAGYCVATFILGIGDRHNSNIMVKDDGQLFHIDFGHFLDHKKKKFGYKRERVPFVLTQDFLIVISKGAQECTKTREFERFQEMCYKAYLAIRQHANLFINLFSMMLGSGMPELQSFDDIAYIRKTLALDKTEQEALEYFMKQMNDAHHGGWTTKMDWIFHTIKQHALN
T1 sequence (P27986 whole entry partner, species assumed): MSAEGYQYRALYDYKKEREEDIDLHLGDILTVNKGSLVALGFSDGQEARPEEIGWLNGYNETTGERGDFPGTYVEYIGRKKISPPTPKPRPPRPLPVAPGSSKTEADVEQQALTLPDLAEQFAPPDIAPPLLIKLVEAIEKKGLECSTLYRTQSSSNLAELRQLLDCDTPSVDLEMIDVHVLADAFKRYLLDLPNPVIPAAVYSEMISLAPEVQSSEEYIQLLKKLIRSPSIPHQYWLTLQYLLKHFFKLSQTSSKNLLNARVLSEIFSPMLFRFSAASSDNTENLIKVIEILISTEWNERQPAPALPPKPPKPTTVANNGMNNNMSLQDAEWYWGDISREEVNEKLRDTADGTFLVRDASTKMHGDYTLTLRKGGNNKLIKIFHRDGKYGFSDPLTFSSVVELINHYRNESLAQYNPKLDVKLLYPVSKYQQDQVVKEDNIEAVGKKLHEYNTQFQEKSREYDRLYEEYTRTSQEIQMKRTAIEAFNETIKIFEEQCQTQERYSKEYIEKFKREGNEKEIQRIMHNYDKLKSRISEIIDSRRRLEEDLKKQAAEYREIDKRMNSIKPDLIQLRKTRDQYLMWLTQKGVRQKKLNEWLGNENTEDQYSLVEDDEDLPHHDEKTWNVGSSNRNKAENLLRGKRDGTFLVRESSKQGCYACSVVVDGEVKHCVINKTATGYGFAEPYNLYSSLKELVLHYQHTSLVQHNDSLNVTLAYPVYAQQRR

PI3K β = molecular target: T2, PI3K β (Homo sapiens, UniProt P42338); test: In vitro PI3 kinase enzyme assay (beta), ATP loss, bioluminescence; type: biochemical; settings: read-out: PI3Kβ ATP loss IC50;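 further: purified p110β/p85 heterodimer with PtdIns(4,5)P2 as acceptor, incubated at room temperature, leftover ATP read by luminescence, inhibition scaled to compound-free wells with and without enzyme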
T2 construct: Full length p110 subunits of PI3K α, β and δ, N-terminally labeled with polyHis tag; polyHis (N); made in house; host or cells: Sf9 insect cells (baculovirus)
T2 sequence (P42338 whole entry): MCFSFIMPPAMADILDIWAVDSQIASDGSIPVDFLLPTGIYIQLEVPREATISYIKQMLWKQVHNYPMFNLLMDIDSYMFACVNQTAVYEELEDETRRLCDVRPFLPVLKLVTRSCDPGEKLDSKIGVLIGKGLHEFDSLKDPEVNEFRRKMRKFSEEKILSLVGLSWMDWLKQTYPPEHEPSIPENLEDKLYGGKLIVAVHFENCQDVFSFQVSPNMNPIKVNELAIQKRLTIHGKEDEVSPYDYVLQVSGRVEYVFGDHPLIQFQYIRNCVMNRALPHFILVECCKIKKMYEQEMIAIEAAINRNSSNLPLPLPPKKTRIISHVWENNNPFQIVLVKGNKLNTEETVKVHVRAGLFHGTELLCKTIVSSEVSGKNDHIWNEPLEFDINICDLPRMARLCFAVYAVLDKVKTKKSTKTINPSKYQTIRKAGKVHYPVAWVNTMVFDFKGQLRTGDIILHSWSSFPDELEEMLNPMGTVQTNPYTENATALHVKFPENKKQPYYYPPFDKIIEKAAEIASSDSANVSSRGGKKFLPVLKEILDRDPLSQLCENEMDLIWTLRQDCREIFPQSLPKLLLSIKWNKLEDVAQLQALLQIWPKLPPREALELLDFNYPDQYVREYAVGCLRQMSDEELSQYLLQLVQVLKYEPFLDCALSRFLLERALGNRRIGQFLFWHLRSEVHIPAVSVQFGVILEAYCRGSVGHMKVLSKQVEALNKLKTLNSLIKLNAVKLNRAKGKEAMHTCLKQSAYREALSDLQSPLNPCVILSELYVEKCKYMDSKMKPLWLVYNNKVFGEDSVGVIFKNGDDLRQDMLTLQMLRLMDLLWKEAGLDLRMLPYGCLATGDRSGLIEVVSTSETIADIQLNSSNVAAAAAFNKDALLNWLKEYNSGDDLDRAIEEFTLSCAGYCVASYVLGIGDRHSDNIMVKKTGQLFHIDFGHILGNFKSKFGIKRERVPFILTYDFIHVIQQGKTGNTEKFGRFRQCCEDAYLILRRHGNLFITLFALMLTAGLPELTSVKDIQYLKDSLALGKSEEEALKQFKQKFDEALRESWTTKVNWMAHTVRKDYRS
T2 sequence (P27986 whole entry partner): as the sequence (P27986 whole entry partner, species assumed) above

| Structure (SMILES) | IC50 [1] [nM] | IC50 (PI3K α) [nM] | IC50 (PI3K β) [nM] |
| --- | --- | --- | --- |
| Nc1nc2ccc(-c3cnc(Cl)c(NS(=O)(=O)c4ccc(Cl)cc4F)c3)cc2s1 [Example 313, N-(5-(2-amino-1,3-benzothiazol-6-yl)-2-chloro-3-pyridinyl)-4-chloro-2-fluorobenzenesulfonamide] | 424 | 13.6 | 27.9 |
| CC(=O)Nc1nc2ccc(-c3cnc(Cl)c(NS(=O)(=O)N4CCCCC4)c3)cc2s1 [Example 316, N-(6-(6-chloro-5-((1-piperidinylsulfonyl)amino)-3-pyridinyl)-1,3-benzothiazol-2-yl)acetamide] | 7 | 10.3 | 35.8 |
| CNc1nc2ccc(-c3cnc(Cl)c(NS(=O)(=O)c4c(C)cccc4Cl)c3)cc2s1 [Example 318, 2-chloro-N-(2-chloro-5-(2-(methylamino)-1,3-benzothiazol-6-yl)-3-pyridinyl)-6-methylbenzenesulfonamide] | 329 | 11.2 | 42.3 |
| CNc1nc2ccc(-c3cnc(Cl)c(NS(=O)(=O)c4c(Cl)cccc4Cl)c3)cc2s1 [Example 319, 2,6-dichloro-N-(2-chloro-5-(2-(methylamino)-1,3-benzothiazol-6-yl)-3-pyridinyl)benzenesulfonamide] | 474 | 9.2 | 36.5 |
| CNc1nc2ccc(-c3cnc(Cl)c(NS(=O)(=O)c4ccccc4F)c3)cc2s1 [Example 320, N-(2-chloro-5-(2-(methylamino)-1,3-benzothiazol-6-yl)-3-pyridinyl)-2-fluorobenzenesulfonamide] | 448 | 14.6 | 61.8 |
| O=S(=O)(Nc1cc(-c2ccc3ncoc3c2)cnc1Cl)c1ccc(F)cc1 [Example 326, N-(5-(1,3-benzoxazol-6-yl)-2-chloro-3-pyridinyl)-4-fluorobenzenesulfonamide] | > 5000 | 22.3 | 34.5 |
| CC(=O)Oc1cc(-c2ccc3ncsc3c2)cnc1Cl [Example 335, 5-(1,3-benzothiazol-6-yl)-2-chloro-3-pyridinyl acetate] | 44 | 15.6 | 113 |

More lines, now with the values ahead:

| IC50 [1] [nM] | IC50 (PI3K α) [nM] | IC50 (PI3K β) [nM] | Structure (SMILES) |
| --- | --- | --- | --- |
| 205 | 2.5 | 12.7 | Nc1nc2ccc(-c3cnc(Cl)c(NS(=O)(=O)c4ccccc4C(F)(F)F)c3)cc2s1 [Example 314, N-(5-(2-amino-1,3-benzothiazol-6-yl)-2-chloro-3-pyridinyl)-2-(trifluoromethyl)benzenesulfonamide] |
| 246 | 8.6 | 30.2 | CNc1nc2ccc(-c3cnc(Cl)c(NS(=O)(=O)c4ccc(F)cc4)c3)cc2s1 [Example 317, N-(2-chloro-5-(2-(methylamino)-1,3-benzothiazol-6-yl)-3-pyridinyl)-4-fluorobenzenesulfonamide] |
| 672 | 12 | 22.2 | CNc1nc2ccc(-c3cnc(Cl)c(NS(=O)(=O)c4ccc(C(C)=O)cc4)c3)cc2s1 [Example 321, 4-acetyl-N-(2-chloro-5-(2-(methylamino)-1,3-benzothiazol-6-yl)-3-pyridinyl)benzenesulfonamide] |
| 558 | 10.8 | 25.4 | CNc1nc2ccc(-c3cnc(Cl)c(NS(=O)(=O)c4ccc(C(C)(C)NC(C)=O)cc4)c3)cc2s1 [Example 322, N-(1-(4-((2-chloro-5-(2-(methylamino)-1,3-benzothiazol-6-yl)-3-pyridinyl)sulfamoyl)phenyl)-1-methylethyl)acetamide] |
| 915 | 19.6 | 33.2 | CC(=O)NC(C)(C)c1ccc(S(=O)(=O)Nc2cc(-c3ccc4nc(N)sc4c3)cnc2Cl)cc1 [Example 323, N-(1-(4-((5-(2-amino-1,3-benzothiazol-6-yl)-2-chloro-3-pyridinyl)sulfamoyl)phenyl)-1-methylethyl)acetamide] |
| 151 | 10.9 | 17.1 | CC(C)(O)c1ccc(S(=O)(=O)Nc2cc(-c3ccc4nc(N)sc4c3)cnc2Cl)cc1 [Example 324, N-(5-(2-amino-1,3-benzothiazol-6-yl)-2-chloro-3-pyridinyl)-4-(1-hydroxy-1-methylethyl)benzenesulfonamide] |
| 468 | 18 | 20.6 | CC(=O)c1ccc(S(=O)(=O)Nc2cc(-c3ccc4nc(N)sc4c3)cnc2Cl)cc1 [Example 325, 4-acetyl-N-(5-(2-amino-1,3-benzothiazol-6-yl)-2-chloro-3-pyridinyl)benzenesulfonamide] |

— patent US7928140B2, “Benzothiazole PI3 kinase modulators for cancer treatment” (Amgen Inc., priority 2007, dated 2011)
